How the values were obtained:
[1] = target: T1, ROCK1 (Homo sapiens (Human), UniProt Q13464); experiment: ROCK1 ADP-Glo kinase enzyme inhibition assay; type: biochemical; details: read-out: ROCK1 IC50
Experimental: We measured ROCK and PKA kinase enzyme activity inhibition by compounds using commercially available ROCK1 (Promega Corporation, cat #V9581), ROCK2 (Promega, cat #V4045), and PKA kinase (Promega, cat #V4247) ADP-Glo™ assay kits. ADP-Glo™ Kinase Assay is a luminescent ADP detection assay that provides a homogeneous method to measure kinase activity by quantifying the amount of ADP produced during a kinase reaction. The assay is performed in two steps. First, after the kinase reaction, an equal volume of ADP-Glo™ Reagent is added to terminate the kinase reaction and deplete the remaining ATP. Second, the Kinase Detection Reagent is added to simultaneously convert ADP to ATP and allow the newly synthesized ATP to be measured using a luciferase/luciferin reaction. The light generated is measured using a luminometer. A complete protocol is included with the kits and is also available at the Promega website. The assay is briefly described below. • 1. Diluted enzyme, substrate, ATP, and compounds (inhibitors) in Kinase Buffer (40 mM Tris, 7.5, 20 mM MgCl2, 0.1 mg/ml BSA, 50 μM DTT). • 2. Added 1 μl of inhibitor, 2 μl of enzyme and 2 μl of substrate/ATP mix to the wells of 384-well low volume nonbinding assay plate A series of three-fold dilution of inhibitor was prepared and assayed for each inhibitor. • 3. Incubated at room temperature for 60 minutes. • 4. Added 5 μl of ADP-Glo™ Reagent. • 5. Incubated at room temperature for 60 minutes. • 6. Added 10 μl of Kinase Detection Reagent • 7. Incubated at room temperature for 30 minutes.
Recorded luminescence (Integration time 1 second) using a plate-based luminometer.
Calculated Percent Enzyme Activity: First subtract the signal of the negative control (no enzyme and no inhibitor) from each sample's signal. Then use the mean relative light units (RLU) values for the 0% kinase activity (neither inhibitor nor enzyme) and the 100% kinase activity (no compound) to calculate the other percent enzyme activities remaining in the presence of the different dilutions of inhibitor. […]

[2] = target: AKT1 (Homo sapiens (Human), UniProt P31749); experiment: Kinase Selectivity Profiling General Panel (ADP-Glo); type: biochemical; details: 1 μM compound, read-out: Percent enzyme activity inhibition, AKT1
Experimental: (§1) After this incubation, 5 μl of ADP-Glo™ reagent was added to 5 μl reaction and incubated for 40 minutes. Then, 10 μl of Kinase Detection Reagent added to all assay wells in the assay plate and incubated at room temperature for 30 minutes. […]

[3] = target: AMPKA1/B1/G2 (Homo sapiens (Human), UniProt Q13131); experiment: as above; type: biochemical; details: 1 μM compound, read-out: Percent enzyme activity inhibition, AMPKA1/B1/G2
Experimental: as §1

[4] = target: Aurora A (Homo sapiens (Human), UniProt O14965); experiment: as above; type: biochemical; details: 1 μM compound, read-out: Percent enzyme activity inhibition, Aurora A
Experimental: as §1

[5] = target: CHK1 (Homo sapiens (Human), UniProt O14757); experiment: as above; type: biochemical; details: 1 μM compound, read-out: Percent enzyme activity inhibition, CHK1
Experimental: as §1

[6] = target: CK1a1 (Homo sapiens (Human), UniProt P48729); experiment: as above; type: biochemical; details: 1 μM compound, read-out: Percent enzyme activity inhibition, CK1a1
Experimental: as §1

[7] = target: CK1g1 (Homo sapiens (Human), UniProt Q9HCP0); experiment: as above; type: biochemical; details: 1 μM compound, read-out: Percent enzyme activity inhibition, CK1g1
Experimental: as §1

[8] = target: CK2a1 (Homo sapiens (Human), UniProt P68400); experiment: as above; type: biochemical; details: 1 μM compound, read-out: Percent enzyme activity inhibition, CK2a1
Experimental: as §1

[9] = target: FGFR1 (Homo sapiens (Human), UniProt P11362); experiment: as above; type: biochemical; details: 1 μM compound, read-out: Percent enzyme activity inhibition, FGFR1
Experimental: as §1

[10] = target: GSK3b (Homo sapiens (Human), UniProt P49841); experiment: as above; type: biochemical; details: 1 μM compound, read-out: Percent enzyme activity inhibition, GSK3b
Experimental: as §1

[11] = target: IKKb (Homo sapiens (Human), UniProt O14920); experiment: as above; type: biochemical; details: 1 μM compound, read-out: Percent enzyme activity inhibition, IKKb
Experimental: as §1

[12] = target: LCK (Homo sapiens (Human), UniProt P06239); experiment: as above; type: biochemical; details: 1 μM compound, read-out: Percent enzyme activity inhibition, LCK
Experimental: as §1

[13] = target: MINK1 (Homo sapiens (Human), UniProt Q8N4C8); experiment: as above; type: biochemical; details: 1 μM compound, read-out: Percent enzyme activity inhibition, MINK1
Experimental: as §1

[14] = target: T1, ROCK1; experiment: as above; type: biochemical; details: 1 μM compound, read-out: Percent enzyme activity inhibition, ROCK1
Experimental: as §1

[15] = target: SYK (Homo sapiens (Human), UniProt P43405); experiment: as above; type: biochemical; details: 1 μM compound, read-out: Percent enzyme activity inhibition, SYK
Experimental: as §1

[16] = target: p38a (Homo sapiens (Human), UniProt Q16539); experiment: as above; type: biochemical; details: 1 μM compound, read-out: Percent enzyme activity inhibition, p38a
Experimental: as §1

[17] = tested on: New Zealand White rabbits; experiment: Sodium hyaluronate-induced acute ocular hypertension, IOP; type: in vivo, rabbit
From the text: In all studies, male New Zealand White rabbits were acclimatized for one week before the study. Animals were given food and water ad libitum. Body weights of rabbits ranged from 2 to 3 kg. Animals were trained for the IOP measurement procedure during the acclimation period in order to reduce stress and obtaining more accurate measurements during the study. IOP measurements were taken using the Icare® TONOVET Plus tonometer. […] IOP readings are obtained only when the tonometer is held an appropriate distance and in the correct plane relative to the ocular surface. Green light appears when the orientation is correct, thereby minimizing operator errors. Measurements were performed at the same time of day by the same person using the same instrument. Sodium hyaluronate-induced acute ocular hypertension study. Sodium hyaluronate injection into the anterior chamber of rabbit eye creates acute ocular hypertensive status. […] Another group of four animals with elevated IOP received saline only in right eyes. The left eyes of both groups were instilled topically with 30 μl saline eye drop.

T1 sequence (Q13464 whole entry): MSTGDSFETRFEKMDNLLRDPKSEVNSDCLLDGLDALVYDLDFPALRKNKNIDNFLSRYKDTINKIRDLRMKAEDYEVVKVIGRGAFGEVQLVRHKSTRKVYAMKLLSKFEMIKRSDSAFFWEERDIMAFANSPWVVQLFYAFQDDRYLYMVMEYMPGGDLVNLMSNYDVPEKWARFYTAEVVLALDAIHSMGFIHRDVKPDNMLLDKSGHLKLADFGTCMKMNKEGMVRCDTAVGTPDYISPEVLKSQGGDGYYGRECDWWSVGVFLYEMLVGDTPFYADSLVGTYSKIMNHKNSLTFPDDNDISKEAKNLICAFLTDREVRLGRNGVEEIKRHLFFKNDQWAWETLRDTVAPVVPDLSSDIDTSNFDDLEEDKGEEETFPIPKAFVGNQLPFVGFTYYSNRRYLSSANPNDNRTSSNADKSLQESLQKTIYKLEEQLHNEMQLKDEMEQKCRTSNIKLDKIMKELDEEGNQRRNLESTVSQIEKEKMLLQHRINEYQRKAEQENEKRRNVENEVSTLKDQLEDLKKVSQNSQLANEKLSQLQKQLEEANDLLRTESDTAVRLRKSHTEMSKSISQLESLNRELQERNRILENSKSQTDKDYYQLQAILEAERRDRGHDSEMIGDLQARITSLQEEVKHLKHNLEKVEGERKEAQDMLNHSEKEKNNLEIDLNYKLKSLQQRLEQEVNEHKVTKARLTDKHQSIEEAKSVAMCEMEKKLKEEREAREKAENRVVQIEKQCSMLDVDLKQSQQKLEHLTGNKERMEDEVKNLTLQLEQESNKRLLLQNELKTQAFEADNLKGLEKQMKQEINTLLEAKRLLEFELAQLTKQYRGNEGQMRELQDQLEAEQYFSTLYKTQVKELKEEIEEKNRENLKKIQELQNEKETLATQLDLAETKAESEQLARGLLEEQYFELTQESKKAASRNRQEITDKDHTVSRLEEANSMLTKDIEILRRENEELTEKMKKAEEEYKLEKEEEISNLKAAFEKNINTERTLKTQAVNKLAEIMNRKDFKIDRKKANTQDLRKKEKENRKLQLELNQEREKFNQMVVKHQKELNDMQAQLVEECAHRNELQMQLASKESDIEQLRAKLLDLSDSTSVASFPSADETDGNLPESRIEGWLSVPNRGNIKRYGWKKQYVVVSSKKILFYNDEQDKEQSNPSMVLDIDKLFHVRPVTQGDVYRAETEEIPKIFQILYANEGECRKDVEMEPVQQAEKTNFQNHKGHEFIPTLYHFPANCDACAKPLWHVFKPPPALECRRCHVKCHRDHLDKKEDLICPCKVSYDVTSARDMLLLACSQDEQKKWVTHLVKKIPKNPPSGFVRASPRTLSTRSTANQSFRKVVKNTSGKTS
CK1a1, sequence (P48729 whole entry): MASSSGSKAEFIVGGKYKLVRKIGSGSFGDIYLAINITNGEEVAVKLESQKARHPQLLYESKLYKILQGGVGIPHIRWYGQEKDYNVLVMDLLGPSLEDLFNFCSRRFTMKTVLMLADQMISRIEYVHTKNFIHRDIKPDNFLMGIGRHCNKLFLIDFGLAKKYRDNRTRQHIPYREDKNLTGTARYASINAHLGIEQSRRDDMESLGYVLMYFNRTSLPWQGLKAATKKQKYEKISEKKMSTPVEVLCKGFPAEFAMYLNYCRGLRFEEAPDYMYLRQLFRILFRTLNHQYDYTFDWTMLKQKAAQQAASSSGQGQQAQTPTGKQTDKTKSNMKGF
AKT1, sequence (P31749 whole entry): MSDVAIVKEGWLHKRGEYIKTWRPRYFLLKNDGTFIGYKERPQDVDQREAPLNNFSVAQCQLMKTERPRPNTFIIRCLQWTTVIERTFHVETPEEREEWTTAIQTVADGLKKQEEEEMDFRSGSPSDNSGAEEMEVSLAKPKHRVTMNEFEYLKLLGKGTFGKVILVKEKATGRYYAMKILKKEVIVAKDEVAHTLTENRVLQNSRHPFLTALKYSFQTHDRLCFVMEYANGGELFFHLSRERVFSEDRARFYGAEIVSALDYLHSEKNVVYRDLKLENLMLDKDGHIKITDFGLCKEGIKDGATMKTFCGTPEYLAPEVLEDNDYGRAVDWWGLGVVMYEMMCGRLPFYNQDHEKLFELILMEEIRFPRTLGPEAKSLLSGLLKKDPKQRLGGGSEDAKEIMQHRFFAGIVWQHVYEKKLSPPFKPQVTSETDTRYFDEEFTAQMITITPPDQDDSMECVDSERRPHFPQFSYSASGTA
GSK3b, sequence (P49841 whole entry): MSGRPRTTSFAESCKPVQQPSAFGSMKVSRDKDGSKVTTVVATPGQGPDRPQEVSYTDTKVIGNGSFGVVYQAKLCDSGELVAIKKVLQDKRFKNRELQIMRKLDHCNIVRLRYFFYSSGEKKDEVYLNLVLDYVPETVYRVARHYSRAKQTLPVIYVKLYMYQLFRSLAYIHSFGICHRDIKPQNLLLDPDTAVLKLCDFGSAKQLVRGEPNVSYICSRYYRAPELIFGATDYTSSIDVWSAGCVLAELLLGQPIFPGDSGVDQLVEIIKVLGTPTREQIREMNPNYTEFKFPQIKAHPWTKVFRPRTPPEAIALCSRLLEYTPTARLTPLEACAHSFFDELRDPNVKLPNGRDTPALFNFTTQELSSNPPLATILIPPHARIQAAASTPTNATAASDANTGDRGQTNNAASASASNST
IKKb, sequence (O14920 whole entry): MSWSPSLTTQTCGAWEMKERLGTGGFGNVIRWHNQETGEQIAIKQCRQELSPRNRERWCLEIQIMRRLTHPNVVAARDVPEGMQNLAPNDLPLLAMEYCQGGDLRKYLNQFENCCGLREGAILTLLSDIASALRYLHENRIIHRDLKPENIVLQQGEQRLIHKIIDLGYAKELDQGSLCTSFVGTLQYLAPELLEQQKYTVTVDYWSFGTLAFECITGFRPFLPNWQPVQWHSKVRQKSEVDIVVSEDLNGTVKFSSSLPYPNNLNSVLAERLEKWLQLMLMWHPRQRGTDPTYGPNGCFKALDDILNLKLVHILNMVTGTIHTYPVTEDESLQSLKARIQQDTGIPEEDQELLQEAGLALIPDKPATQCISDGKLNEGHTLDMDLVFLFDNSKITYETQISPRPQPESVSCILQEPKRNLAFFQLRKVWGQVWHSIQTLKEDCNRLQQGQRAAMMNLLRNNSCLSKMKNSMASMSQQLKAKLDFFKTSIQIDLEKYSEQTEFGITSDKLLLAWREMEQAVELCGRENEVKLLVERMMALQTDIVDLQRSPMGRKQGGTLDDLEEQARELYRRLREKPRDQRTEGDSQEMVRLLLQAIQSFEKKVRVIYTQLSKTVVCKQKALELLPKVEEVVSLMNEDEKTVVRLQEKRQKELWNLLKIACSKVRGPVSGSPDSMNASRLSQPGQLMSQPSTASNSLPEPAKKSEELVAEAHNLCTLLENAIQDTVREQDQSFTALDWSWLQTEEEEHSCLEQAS
MINK1, sequence (Q8N4C8 whole entry): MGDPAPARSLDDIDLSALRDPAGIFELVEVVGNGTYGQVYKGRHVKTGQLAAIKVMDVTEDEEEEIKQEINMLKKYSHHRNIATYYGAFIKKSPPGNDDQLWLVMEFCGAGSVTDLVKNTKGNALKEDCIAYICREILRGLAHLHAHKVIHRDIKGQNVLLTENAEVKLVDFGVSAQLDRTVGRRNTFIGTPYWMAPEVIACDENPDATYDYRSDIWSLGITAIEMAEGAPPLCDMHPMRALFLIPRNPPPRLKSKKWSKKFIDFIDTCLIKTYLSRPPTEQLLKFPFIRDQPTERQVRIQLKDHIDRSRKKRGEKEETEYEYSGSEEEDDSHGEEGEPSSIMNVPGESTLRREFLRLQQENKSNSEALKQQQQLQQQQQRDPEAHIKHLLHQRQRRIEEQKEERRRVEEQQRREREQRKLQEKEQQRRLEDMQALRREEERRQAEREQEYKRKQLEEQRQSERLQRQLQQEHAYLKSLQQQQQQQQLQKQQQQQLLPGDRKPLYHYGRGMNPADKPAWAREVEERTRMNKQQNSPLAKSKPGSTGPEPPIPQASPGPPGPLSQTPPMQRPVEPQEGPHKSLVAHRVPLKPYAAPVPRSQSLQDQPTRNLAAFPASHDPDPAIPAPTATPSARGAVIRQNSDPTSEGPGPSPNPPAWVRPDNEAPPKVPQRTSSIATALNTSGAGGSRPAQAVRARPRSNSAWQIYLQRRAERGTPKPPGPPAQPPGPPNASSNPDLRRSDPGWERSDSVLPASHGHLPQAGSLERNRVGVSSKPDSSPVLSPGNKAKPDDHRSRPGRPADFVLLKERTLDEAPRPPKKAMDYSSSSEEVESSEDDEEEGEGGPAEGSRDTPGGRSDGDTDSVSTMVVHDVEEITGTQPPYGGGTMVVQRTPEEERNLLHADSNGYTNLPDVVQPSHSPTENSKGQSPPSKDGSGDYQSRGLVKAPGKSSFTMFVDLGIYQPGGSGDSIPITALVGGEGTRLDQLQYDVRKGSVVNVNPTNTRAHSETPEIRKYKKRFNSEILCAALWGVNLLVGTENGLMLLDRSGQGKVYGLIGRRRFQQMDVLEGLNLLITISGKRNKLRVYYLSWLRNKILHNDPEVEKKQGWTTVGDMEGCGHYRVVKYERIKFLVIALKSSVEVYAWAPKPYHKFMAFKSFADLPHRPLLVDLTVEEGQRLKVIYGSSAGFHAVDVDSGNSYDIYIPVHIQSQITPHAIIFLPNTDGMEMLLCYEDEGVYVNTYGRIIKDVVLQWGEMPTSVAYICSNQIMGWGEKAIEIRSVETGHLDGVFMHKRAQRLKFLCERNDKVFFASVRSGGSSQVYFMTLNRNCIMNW
CK2a1, sequence (P68400 whole entry): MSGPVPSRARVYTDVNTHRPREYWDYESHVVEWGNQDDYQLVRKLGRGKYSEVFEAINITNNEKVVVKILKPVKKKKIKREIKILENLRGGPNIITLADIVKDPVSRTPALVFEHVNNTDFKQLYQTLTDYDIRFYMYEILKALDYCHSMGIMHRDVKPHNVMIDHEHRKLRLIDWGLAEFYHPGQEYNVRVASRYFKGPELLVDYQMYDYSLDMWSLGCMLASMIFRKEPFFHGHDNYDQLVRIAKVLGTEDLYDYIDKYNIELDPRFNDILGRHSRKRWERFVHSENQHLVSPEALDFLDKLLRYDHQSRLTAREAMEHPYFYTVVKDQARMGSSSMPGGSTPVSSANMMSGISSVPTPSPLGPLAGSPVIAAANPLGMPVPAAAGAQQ

With `Cl.Cl.NCC(C(=O)Nc1ccc2cnccc2c1)c1ccc(B(O)O)cc1` (stereo not shown) [Compound 10•2HCl] the IC50 [1] was 54 nM, the inhibition at 1 µM [2] was 55% and the inhibition at 1 µM [3] was 58%. For the same compound, the inhibition at 1 µM [4] was 21%, the inhibition at 1 µM [5] was 21% and the inhibition at 1 µM [6] was 0%. The inhibition at 1 µM [7] was 0%, the inhibition at 1 µM [8] was 3% and the inhibition at 1 µM [9] was 35%. It also gave an inhibition at 1 µM [10] of 0%, an inhibition at 1 µM [11] of 0% and an inhibition at 1 µM [12] of 0%. The inhibition at 1 µM [13] was 3%, the inhibition at 1 µM [14] was 98% and the inhibition at 1 µM [15] was 2%. For the same compound, the inhibition at 1 µM [16] was 0%, the “Duration of IOP effect” value ([17]; experiment 1, 1 mg/ml eye drop) was 6 h and the “Effect on IOP compared to saline only group” value ([17]; experiment 1, 30 μl eye drop in saline (1 mg/ml, 2.34 mM) two hours after hyaluronate injection) was “decreased IOP significantly within 1 hour after application”. For the same compound, the “Effect on IOP” value ([17]; experiment 2, compound 10.2HCl 1 mg/ml (2.34 mM), Netarsudil.2HCl 0.25 mg/ml (0.47 mM), 30 μL eye drop) was “reduced IOP significantly within 1 hour after eye drop application”.

Reference: patent publication US12479866B2, “Boron-containing rho kinase inhibitors” (Percipiad, Inc., priority 2019, dated 2025)
